According to patent US10081662B2, “Modified relaxin B chain peptides” (The Florey Institute of Neuroscience and Mental Health, priority 2014, dated 2018):
Peptide text beside a SMILES is read from it.

Experiments:
[1] = system: rat model of myocardial infarction; test: Rat model of myocardial infarction-induced heart failure; format: in vivo; conditions: vs vehicle
Procedure: Adult male Sprague-Dawley rats weighing 250-320 g were obtained from Animal Resources Centre, Perth, Wash., Australia. The rats were group housed in a constant temperature of 22±1° C. and a relative humidity of 50-60% under a controlled light-dark cycle of 12 hours. Rats were given access to standard laboratory rat chow and drinking water ad libitum.
Heart failure was induced as previously described (Ruchaya et al., 2014, Exp Physiol 99, 111-122). Breifly, to induce heart failure, rats were anaesthetised with an intramuscular injection of ketamine (60 mg/kg) and medetomide hydrochloride ([…]). A left sided thoracotomy through an opening between the fourth and fifth rib was performed, the heart was exteriorised and the left anterior descending coronary artery was ligated. Anaesthesia was reversed with antipamezole hydrocholide (1 mg/kg). Penicillin (1000 U) and buprenorphine (0.05 mg/kg) was administered to aid post-operative recovery. Animals were left to recover from the surgery under a heating source. Rats were individually housed after the surgery.
Eight weeks after myocardial infarction surgery, rats were randomly assigned to 3 groups (vehicle, H2 and B7-33), re-anaesthetised (2-3% isoflurane) and an osmotic mini-pump (model 2ML4, Alzet, Cupertino, Calif.) implanted intraperitoneally. Vehicle (saline), native H2 relaxin (0.5 mg/kg/day) or B7-33 C11.23S (0.5 mg/kg/day) was continuously administered for 28 days. At the conclusion of treatment, rats were anaesthetized (sodium pentobarbitone, 60 mg/kg i.p.) and the left ventricular end-diastolic pressure determined prior to decapitation and removal of the heart for histological analysis.

[2] = target: T1, fusion protein comprising the extracellular domain of RXFP1 and the transmembrane domain of CD8 (7BP cells) (Homo sapiens, UniProt Q9HBX9); test: Eu-labelled H2 relaxin competition binding to 7BP cells; conditions: 7BP cells
T1 construct: the extracellular domain of RXFP1 and the transmembrane domain of CD8; expressed in transfected cells
T1 sequence (Q9HBX9 1-409 limits assumed): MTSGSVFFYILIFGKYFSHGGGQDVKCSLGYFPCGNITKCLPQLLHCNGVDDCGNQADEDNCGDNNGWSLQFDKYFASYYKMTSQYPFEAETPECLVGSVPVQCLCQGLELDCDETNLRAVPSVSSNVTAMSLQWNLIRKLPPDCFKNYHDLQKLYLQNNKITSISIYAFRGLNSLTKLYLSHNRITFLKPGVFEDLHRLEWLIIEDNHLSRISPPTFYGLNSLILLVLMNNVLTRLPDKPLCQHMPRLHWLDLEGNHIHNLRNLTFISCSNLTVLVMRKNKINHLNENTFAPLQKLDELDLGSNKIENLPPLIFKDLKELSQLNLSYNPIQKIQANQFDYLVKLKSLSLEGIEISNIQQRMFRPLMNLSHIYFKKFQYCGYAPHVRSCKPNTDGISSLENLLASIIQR

[3] = system: RM1 mouse prostate tumour cells; test: Prostate tumour growth after injection of RM1 cells into prostates of C57BL/6 mice; format: in vivo; conditions: day 10 after RM1 cells, s.c. mini-pump from day 2, H2 relaxin 0.15, B7-33 C11.23S 0.075 mg/kg/day, vs untreated
Source text: Seven to eight-week old male 129SV mice (which are sensitive to tissue injury and fibrosis) and age-matched female Balb/c mice (which are sensitive to changes in airway hyperresponsiveness) were used for the induction of isoproterenol-induced cardiomyopathy and ovalbumin-induced chronic allergic airways disease, respectively. 16 five week-old male C57BL/6 mice were used in the induction of prostate cancer growth. All animals were obtained from Monash Animal Services (Monash University, Clayton, Victoria, Australia) and housed under standard conditions (maintained on an 12 h light-12 h dark lighting cycle with free access to food and water) in the Department of Pharmacology Animal Room at Monash University.
H2 relaxin can induce prostate and other tumour growth. To measure the effect of B7-33 C11.23S on tumour growth, 16 five week-old male C57BL/6 mice (obtained from Monash Animal Services) were injected with 5000 RM1 (mouse prostate tumor) cells into their prostates to induce tumor growth. One sub-group of mice n=5) was left untreated until day 10 post-RM1 cell administration. […]

RXFP2 = target: T2, RXFP2 (Homo sapiens, UniProt Q8WXD0); test: cAMP reporter gene assay in HEK-293T cells transfected with RXFP2; format: cell-based; conditions: RXFP1- vs RXFP2-expressing HEK-293T cells; FIG. 3
T2 construct: expressed in transfected cells; host or cells: HEK-293T
Procedure: The ability of the relaxin-2 B chain peptide derivatives generated in Example 1 to stimulate cAMP response was also evaluated, using a cAMP reporter gene assay as described previously (Scott et al., 2006, J Biol Chem. 281, 34942-34954). HEK-293T cells co-transfected with either RXFP1 or RXFP2, or 7BP cells, and a pCRE β-galactosidase reporter plasmid were plated in 96-well plates. After 24 hours, the co-transfected cells were incubated with increasing concentrations of peptides in parallel to 10 nM of H2 relaxin or INSL3 for RXFP1- or RXFP2-transfected cells respectively. The amount of cAMP-driven β-galactosidase expression in each well was assessed with a colorimetric assay measuring absorbance at 570 nm on a microplate spectrophotometer. Ligand-induced cAMP stimulation was expressed as a percentage of maximal response of H2 relaxin or INSL3 for RXFP1 and RXFP2 cells respectively. Each data point was measured in triplicate and each experiment conducted independently at least three separate times. Statistical differences in pEC50 values were analyzed using one-way ANOVA coupled to Newman Keul's multiple comparison test for multiple group comparisons in GraphPad Prism 6.

T2 sequence (Q8WXD0 whole entry): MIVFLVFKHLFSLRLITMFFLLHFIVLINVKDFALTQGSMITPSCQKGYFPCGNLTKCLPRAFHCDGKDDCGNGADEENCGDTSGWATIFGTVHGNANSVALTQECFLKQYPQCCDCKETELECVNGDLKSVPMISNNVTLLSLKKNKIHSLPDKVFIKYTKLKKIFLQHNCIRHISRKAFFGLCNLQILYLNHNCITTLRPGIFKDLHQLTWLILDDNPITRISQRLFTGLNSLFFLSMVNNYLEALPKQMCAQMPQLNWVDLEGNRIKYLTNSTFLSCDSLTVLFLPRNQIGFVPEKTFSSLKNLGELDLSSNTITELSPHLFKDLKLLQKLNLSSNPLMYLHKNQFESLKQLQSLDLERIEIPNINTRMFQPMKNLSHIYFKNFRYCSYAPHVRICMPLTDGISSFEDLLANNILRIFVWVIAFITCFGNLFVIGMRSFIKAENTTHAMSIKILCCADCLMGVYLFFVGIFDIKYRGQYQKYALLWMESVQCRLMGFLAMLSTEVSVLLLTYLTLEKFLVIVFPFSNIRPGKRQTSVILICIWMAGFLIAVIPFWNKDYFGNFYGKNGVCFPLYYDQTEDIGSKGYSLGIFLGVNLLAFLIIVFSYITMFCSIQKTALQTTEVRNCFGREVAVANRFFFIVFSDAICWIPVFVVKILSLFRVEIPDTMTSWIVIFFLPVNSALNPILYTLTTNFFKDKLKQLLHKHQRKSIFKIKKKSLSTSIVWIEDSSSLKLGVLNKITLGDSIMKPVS

CC[C@H](C)[C@H](NC(=O)[C@H](C)NC(=O)[C@@H](NC(=O)[C@H](CCC(N)=O)NC(=O)[C@H](C)NC(=O)[C@H](CCCNC(=N)N)NC(=O)[C@@H](NC(=O)[C@H](CC(C)C)NC(=O)[C@H](CCC(=O)O)NC(=O)[C@H](CCCNC(=N)N)NC(=O)CNC(=O)[C@H](CO)NC(=O)[C@H](CC(C)C)NC(=O)[C@H](CCCCN)NC(=O)[C@@H](NC(=O)[C@@H](N)C(C)C)[C@@H](C)CC)C(C)C)[C@@H](C)CC)C(=O)N[C@@H](CO)C(=O)NCC(=O)N[C@@H](CCSC)C(=O)N[C@@H](CO)C(=O)N[C@H](C(=O)N[C@@H](Cc1c[nH]c2ccccc12)C(=O)N[C@@H](CO)C(=O)N[C@@H](CCCCN)C(=O)N[C@@H](CCCNC(=N)N)C(=O)N[C@@H](CO)C(=O)N[C@@H](CC(C)C)C(N)=O)[C@@H](C)O [B7-33 C11.23S] (H-VIKLSGRELVRAQIAISGMSTWSKRSL-NH2)
Percentage of collagen in the interstitial area of the left ventricle ([1]; 0.5 mg/kg/day i.p. mini-pump for 28 days from 8 weeks after MI): significant reduction
Left ventricular end-diastolic pressure (LVEDP) ([1]; 12 weeks after myocardial infarction): reduced
Ki ([2]; competition with Eu-labelled H2 relaxin, n ≥ 3, read-out: 7BP Eu-H2 pKi (converted)): 0.0224 µM
Binding to 7BP cells (in words) ([2]; lower affinity than H2 relaxin, FIG. 2B): strongly bind to 7BP cells
Prostate tumour size [3]: did not result in changes in tumour size relative to untreated
Selectivity of cAMP stimulation, RXFP1 over RXFP2 (RXFP2): selective at RXFP1 over RXFP2
